Experimental data as given in patent US20220175744A1, “COMBINATIONS OF TRANSCRIPTION INHIBITORS AND IMMUNE CHECKPOINT INHIBITORS FOR TREATMENT OF DISEASE” (Board of Regents, The University of Texas System, priority 2019, published 2022).

Assays:
Assay type in all cases: cell-based
[1] = test system: patient-derived and commercially-available PDAC cell lines; experiment: proliferation assay in a panel of PDAC cell lines; conditions: range over all tested PDAC cell lines
[2] = test system: patient-derived and commercially-available PDAC cell lines; experiment: apoptosis induction assay in PDAC cell lines; conditions: all tested PDAC cell lines
p-STAT3 = target: T1, p-STAT3 (Homo sapiens, UniProt P40763); experiment: inhibition of p-STAT3 by western blot and immunofluorescence in PDAC cell lines; conditions: all tested PDAC cell lines; western blot, immunofluorescence
T1 construct: endogenous in cells
T1 sequence (P40763 whole entry): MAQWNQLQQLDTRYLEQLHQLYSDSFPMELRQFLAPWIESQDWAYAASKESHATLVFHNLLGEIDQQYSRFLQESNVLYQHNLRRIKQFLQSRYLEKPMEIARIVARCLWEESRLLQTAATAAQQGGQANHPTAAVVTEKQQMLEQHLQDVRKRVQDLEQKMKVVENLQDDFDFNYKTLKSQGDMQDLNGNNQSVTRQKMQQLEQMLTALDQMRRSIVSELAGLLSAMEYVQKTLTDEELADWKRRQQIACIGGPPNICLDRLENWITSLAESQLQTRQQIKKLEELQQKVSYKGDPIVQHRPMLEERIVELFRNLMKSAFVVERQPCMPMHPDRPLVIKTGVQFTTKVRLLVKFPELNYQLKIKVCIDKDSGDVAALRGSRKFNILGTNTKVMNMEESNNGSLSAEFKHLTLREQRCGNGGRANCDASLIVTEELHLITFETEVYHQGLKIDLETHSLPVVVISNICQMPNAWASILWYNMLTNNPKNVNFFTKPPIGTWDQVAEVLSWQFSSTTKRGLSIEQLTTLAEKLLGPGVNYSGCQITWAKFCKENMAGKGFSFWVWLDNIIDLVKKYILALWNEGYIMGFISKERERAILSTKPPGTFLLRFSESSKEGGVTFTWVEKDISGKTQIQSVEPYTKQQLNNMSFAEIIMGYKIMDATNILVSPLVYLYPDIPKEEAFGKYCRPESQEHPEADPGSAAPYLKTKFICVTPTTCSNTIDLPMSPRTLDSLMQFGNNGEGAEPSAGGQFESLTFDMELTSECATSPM
Protocol: The chemical synthesis of WP1066 and WP1732 and their characterization was performed at U.T. MD Anderson Cancer Center. In vitro efficacy of both inhibitors was assessed using proliferation and apoptosis induction assays in a panel of patient-derived and commercially-available PDAC cell lines. Inhibition of p-STAT3 was investigated using western blot (WB) and immunofluorescence. […] Observed IC50 values ranged from 0.5 to 2 μM.

C[C@H](NC(=O)/C(C#N)=C/c1cccc(Br)n1)c1ccccc1 [WP1066]
IC50 [1]: 500 to 2000 nM
apoptosis induction [2]: induce apoptosis
inhibition of p-STAT3 and its nuclear localization (p-STAT3): inhibit p-STAT3 and its nuclear localization
